In ChEMBL document CHEMBL1123151, “Carbocyclic analogues of 5'-amino-5'-deoxy- and 3'-amino-3'-deoxythymidines” (1986):

What was measured:
[1] = test system: HEp-2; assay: Compound was tested for inhibition against replication of type 1 herpes simplex virus (HSV-1,strain HF) in human epidermoid carcinoma cells; assay type: functional
[2] = test system: L929; assay: Compound was tested for inhibition against replication of type 1 herpes simplex virus (HSV-1,strain 377) in L929 cells; Experiment 1; assay type: functional, Mus musculus
[3] = test system: L929; assay: Compound was tested for inhibition against replication of type 1 herpes simplex virus (HSV-1,strain 377) in L929 cells; Experiment 2; assay type: functional, Mus musculus
[4] = test system: L929; assay: Compound was tested for inhibition against replication of type 1 herpes simplex virus (HSV-2,strain MS) in L929 cells; assay type: functional, Mus musculus
[5] = test system: Vero; assay: Compound was tested for inhibition against replication of type 1 herpes simplex virus (HSV-1,strain 377) in vero cells; Experiment 3; assay type: functional, Chlorocebus sabaeus
[6] = test system: Vero; assay: Compound was tested for inhibition against replication of type 1 herpes simplex virus (HSV-1,strain 377) in vero cells; Experiment 4; assay type: functional, Chlorocebus sabaeus
[7] = Ratio of the virus rating of the thymidine analogue to the virus rating of ara-A; Experiment 1; assay type: functional
[8] = Ratio of the virus rating of the thymidine analogue to the virus rating of ara-A; Experiment 2; assay type: functional
[9] = test system: L929; assay: Compound was tested for inhibition against replication of type 1 herpes simplex virus (HSV-1,strain 377) in L929 cells; assay type: functional, Mus musculus
[10] = test system: Vero; assay: Compound was tested for inhibition against replication of type 1 herpes simplex virus (HSV-1,strain 377) in vero cells; Experiment 2; assay type: functional, Chlorocebus sabaeus
[11] = Ratio of the virus rating of the thymidine analogue to the virus rating of ara-A in vero cells; Experiment 2; assay type: functional
[12] = Ratio of the virus rating of the thymidine analogue to the virus rating of ara-A in vero cells; Experiment 3; assay type: functional
[13] = Ratio of the virus rating of the thymidine analogue to the virus rating of ara-A in vero cells; Experiment 4; assay type: functional
[14] = test system: Vero; assay: Compound was tested for inhibition against replication of type 1 herpes simplex virus (HSV-1, strain 377) in vero cells; Experiment 2; assay type: functional, Chlorocebus sabaeus
[15] = test system: Vero; assay: Compound was tested for inhibition against replication of type 1 herpes simplex virus (HSV-1, strain 377) in vero cells; Experiment 5; assay type: functional, Chlorocebus sabaeus
[16] = test system: L929; assay: Compound was tested for inhibition against replication of type 1 herpes simplex virus (HSV-1,strain 377) L929 cells; assay type: functional, Mus musculus
[17] = Ratio of the virus rating of the thymidine analogue to the virus rating of ara-A; assay type: functional
[18] = test system: Vero; assay: Compound was tested for inhibition against replication of type 1 herpes simplex virus (HSV-1,strain 377) in vero cells; assay type: functional, Chlorocebus sabaeus

SMILES	VR [1]	VR [3]	VR [4]	VR [5]	VR [6]	Ratio [8]	VR [9]	VR [10]	Ratio [17]	also measured
Cc1cn(C2CC(O)C(CN)C2)c(=O)[nH]c1=O (stereo not given)	0.2	1.8	0.5	0	0	1.28	–	–	–	VR [2]: 3; Ratio [7]: 1
Cc1cn([C@@H]2C[C@H](CO)[C@H](N=[N+]=[N-])C2)c(=O)[nH]c1=O	–	0	0	1	0.8	–	0.2	0.6	–	Ratio [11]: 0.43; Ratio [12]: 0.5; Ratio [13]: 0.44
Cc1cn([C@@H]2C[C@H](CO)[C@H](N)C2)c(=O)[nH]c1=O	–	0.9	–	–	–	0.9	–	–	–	VR [14]: 0; VR [15]: 0
Cc1cn([C@@H]2C[C@H](CO)[C@@H](N)C2)c(=O)[nH]c1=O	–	–	–	–	0.4	–	–	0	0	VR [16]: 0.4
Cc1cn([C@@H]2C[C@H](CO)[C@@H](N=[N+]=[N-])C2)c(=O)[nH]c1=O	–	–	–	–	–	–	–	–	–	VR [18]: 0
Cc1cn(C2CC(O)C(CN=[N+]=[N-])C2)c(=O)[nH]c1=O (stereo not given)	0	–	0	–	–	–	0.8	–	0.27	–
